Assay: Inhibition of [3H]- pentazocine binding against guinea pig brain Sigma opioid receptor type 1

O=C1COc2cc(CN3CCN(c4ccc(Cl)cc4)CC3)ccc2N1 [7-[4-(4-Chloro-phenyl)-piperazin-1-ylmethyl]-4H-benzo[1,4]oxazin-3-one]
IC50: 285 nM
